Results reported in PMC5563081, “Modulating Protein-Protein Interactions of the Mitotic Polo-like Kinases to Target Mutant KRAS” (Cell Chemical Biology, 2017).
Like-named read-outs stand apart in the source and are kept apart here.

Assays:
SW48 KRAS G12D cells = experiment: Cell viability (SRB), SW48 KRAS G12D; format: cell-based; settings: Homo sapiens
Procedure: (§1) SW48 Parental, SW48 G12D, Panc-1, HPAF-II, Panc 02.03 and Panc 05.04 cell lines were seeded overnight at 5000 cells per well in a 96 well plate in recommended media (ATCC). Compounds were added the following day and viability was measured at 72h using the sulforhodamine B (SRB) colorimetric assay as follows. Cells were fixed by replacing media with 1% v/v Trichloroacetic Acid (TCA) (Sigma-Aldrich) at 4°C and incubated for 1h also at 4°C. Wells were washed thoroughly with copious amounts of deionised water before staining with Sulforhodamine B (SRB) (Sigma-Aldrich) solution (0.057% w/v in 1% v/v Acetic Acid (VWR)) for 30 min. Stain was aspirated and wells washed with several changes of 1% v/v Acetic Acid until unbound stain was removed, before air-drying. Bound stain was solubilized with 100μl / well 10mM Tris (pH 8.0) (Trizma Base (121.1) Sigma-Aldrich) with agitation for 10 min. Fluorescence intensity was recorded at Ex540nm / Em590nm using a BMG Pherastar Plus plate reader ([Vichai and Kirtikara, 2006]).

Panc-1 = experiment: Cell viability (SRB), Panc-1; format: cell-based, human; settings: Homo sapiens, PANC-1, 72 h; for GI50: read-out: Abs GI50
Procedure: as §1
Pancreatic organoids were extracted and cultured as detailed above ([Boj et al., 2015]). In brief, pancreatic organoids were seeded at 600 cells per well in a 96 well plate and allowed to grow for 7 days with media replenishment on the 3rd day. Full-grown organoids were then treated with compounds for 72h and viability determined using CellTitre Glo 3D assay (Promega). For viability assays with c-MET siRNA, cells were reverse transfected in a 6 cm dish using Dharmafect 1 (GE Dharmacon) per manufacturer’s instructions. On the following day, cells were trypsinised and plated onto 96 well plates or 6 well plates. The 96 well plates were treated with a dose range of compounds or DMSO, and viability was determined via SRB colorimetric assay. Cells in the 6 well plates were collected at the end of experiment to corroborate knockdown of c-MET by Western blotting.
Cells were reverse-transfected with 50nM (SW48 parental, SW48 KRAS G12D and Panc-1) or 25nM (HeLa Flp-In T-REx parental cells) siRNA using Dharmafect (GE Dharmacon) as manufacturer’s recommendations. Where transfected cells were subsequently treated with compounds, the cells were allowed to settle overnight and then treated with compound at the indicated concentration the following day. Viability was assessed after 72 hrs, with the SRB colorimetric assay. Knockdown efficiencies were determined by Western blot or RT-qPCR. Oligos against the following target sequences were used. c-MET (Qiagen): […], […], […]. PLK1 (Qiagen): […]. PLK2 (SMARTpool; Dharmacon): ACACAGAAGGAGAACGAUA, CAUCAAUGAGGAUAGGAUA, CUGCCUAGUGUUACUGAUA, ACAAAGUCUACGCCGCAAA. PLK3 (SMARTpool; Dharmacon): GCGAGAAGAUCCUAAAUGA, GCAAGUGGGUUGACUACUC, GCACAUCCGUUGGCCAUCA, GACCUCAAGUUGGGAAAUU. PLK4 (Qiagen): […].

[1] = test system: kinase catalytic domains of PLK1, PLK2, PLK3, PLK4 and 51 other protein kinases; experiment: DiscoverX KINOMEscan panel of 55 kinases (statements in words); format: binding, human; settings: cut-off <35% of control
Procedure: A panel of 55 proteins (comprising 51 human kinases structurally or functionally related to the PLKs, plus the kinase catalytic domains of PLK1, PLK2, PLK3 and PLK4) were selected for testing by DiscoverX using the KINOMEscan assay platform. Compounds were supplied as 40x DMSO stocks and were tested at a final concentration of 50μM for Poloppin and 5μM for Poloppin-II. Binding interactions were reported as percentage of control where lower numbers indicate stronger binding. A cut-off of <35% was applied to report significant binding.

[2] = test system: SW48 parental (KRAS WT) cells; experiment: Cell viability (SRB), SW48 parental; format: cell-based; settings: Homo sapiens
Procedure: as §1

## CN(C)CCNC(=O)c1ccc(-c2ccc(-c3ccc(Cl)cc3)n2-c2ccccc2C(F)(F)F)cc1 [Poloppin-II]
SW48 KRAS G12D cells; SW48 G12D, 72 hr, Figure 5D, read-out: GI50
  GI50: 0.0115 ± 0.00109 µM
Panc-1; Panc-1, individual compound, 72 hr, Figure 7G
  GI50: 0.314 µM
[1]; Poloppin-II at 5 μM
  binding to the kinase catalytic domains of PLK1–4, or to 51 other related kinases: no binding
[2]; SW48 Parental, 72 hr, Figure 5D, read-out: GI50
  GI50: 0.0398 ± 0.00112 µM

## O=C(O)CCc1ccc(-c2ccc(Br)cc2)n1-c1ccccc1C(F)(F)F [Poloppin]
SW48 KRAS G12D cells; SW48
  GI50: 5.3 ± 1.03 µM
Panc-1
  GI50: 33.4 µM
Panc-1; read-out: EC50, % survival, Panc-1, All Stars control siRNA, 72 h
  EC50: 40.4 ± 1.03 µM
Panc-1; read-out: EC50, % survival, Panc-1, siMET, 72 h
  EC50: 16.8 ± 1.03 µM
[1]; Poloppin at 50μM
  binding to 51 other protein kinases: No significant binding
  binding to the kinase catalytic domains of PLK1, PLK2, PLK3, PLK4: does not bind
[2]; SW48
  GI50: 13.7 ± 1.03 µM
